The first test relates to Daudi cells. Kind of test: Inhibition of human Daudi lymphoma cell proliferation (Cell-Titer Glo). The test is classed as cell-based. Particulars: 3 days incubation, read-out: Anti-Proliferative Activity Against Daudi cells IC50. As for the experimental part: Introduction of the experimental principle: After the RAD51 inhibitor to be tested was co-incubated with cancer cells for a period of time, the influence of the test compound on cell proliferation was measured by a method for counting cell proliferation based on the quantitative measurement of intracellular ATP content.
Materials and Cells: Daudi cells were purchased from ATCC; fetal bovine serum, 1640 medium and penicillin-streptomycin were purchased from Gibco Inc. (U.S.), 96-well plates were purchased from Corning Inc. (U.S.), and Cell-Titer Glo reagent was purchased from Promega Corporation (U.S.).
Cell culture: Daudi cells were cultured in 1640 culture medium containing 10% fetal bovine serum and 1% penicillin-streptomycin at 37° C. in an atmosphere containing 5% CO2. Cells in logarithmic growth phase could be used for experiments.
Assay of cell proliferation and viability: Cell-Titer Glo reagent was used to measure the inhibitory activities of the compounds on the proliferation of Daudi cell strain. The concentration of cells was adjusted, and the cells were seeded in a 96-well plate and cultured at 37° C. in an atmosphere containing 5% CO2 for 24 hours. The powder of the compound was dissolved in 100% DMSO to form a 10 mM solution. 10 μl of the solution of the compound was aspirated and transferred into a 96-well compound plate containing 20 μl of DMSO solution for 3-fold dilution and was then formulated into 10 serial dilutions. Thereafter, 2 μl of the solution of the compound was aspirated from the corresponding well and added correspondingly into a 96-well intermediate compound dilution plate containing 78 μl of complete culture medium in each well. The resultant was mixed well, and the plate was centrifuged at 1000 rpm for 1 minute. Finally, 10 μl of the solution of the compound was aspirated from the corresponding well of the 96-well intermediate compound dilution plate, and transferred into the corresponding well of the cell culture plate containing 90 μl of complete culture medium. The final concentration of DMSO was 0.25%. After the addition of the compound, the cells were continued to be incubated for 3 days at 37° C. in an atmosphere containing 5% CO2. Cell-Titer Glo reagent was added to measure cell viability.
% Compound inhibition was calculated and IC50 of the compound was filled;
% Compound inhibition=1−100%×(Signal−Bottom)/(Top−Bottom)
Consider `COc1ccc(-c2ccc(-c3cnc([C@H]4CC[C@H](NC(=O)OC(C)C)CC4)s3)c([S@](=N)(=O)C3CC3)c2)cn1` (stereo in doubt) [Example 94-1, isopropyl trans-((4-(5-(2-((R)-cyclopropanesulfonimidoyl))-4-(6-methoxypyridin-3-yl)phenyl)thiazol-2-yl)cyclohexyl)carbamate], for which the IC50 (as a rule, the concentration at which inhibition is half-maximal) came to 0.06 µM.

The same test, now with this note: Homo sapiens, 72 h, 3 days incubation, read-out: Anti-Proliferative Activity Against Daudi cells IC50.
Take `CC(C)OC(=O)N[C@H]1CC[C@H](c2ncc(-c3ccc(Nc4nnco4)cc3S(=N)(=O)C3CC3)s2)CC1` (stereo partly drawn) [Example 100, isopropyl trans-(4-(5-(4-((1,3,4-oxadiazol-2-yl)amino)-2-(cyclopropanesulfonimidoyl)phenyl)thiazol-2-yl)cyclohexyl)carbamate]: the IC50 was found to be 0.68 µM. The same measure, in the same setting: the figure for `Cc1cc(Nc2ccc(-c3ccc([C@H]4CC[C@@H](NC(=O)OC(C)C)CC4)s3)c(S(=O)(=O)C3CC3)c2)n[nH]1` [Example 89-1, isopropyl cis-(4-(5-(2-(cyclopropylsulfonyl)-4-((5-methyl-1H-pyrazol-3-yl)amino)phenyl)thiophen-2-yl)cyclohexyl)carbamate] is 0.127 µM; for `Cc1cc(Nc2ccc(-c3cnc([C@H]4CC[C@H](NC(=O)OC(C)C)CC4)s3)c(S(=O)(=O)C3CC3)c2)n(C)n1` [Example 116, isopropyl trans-(4-(5-(2-(cyclopropylsulfonyl)-4-((1,3-dimethyl-1H-pyrazol-5-yl)amino)phenyl)thiazol-2-yl)cyclohexyl)carbamate] it is 0.004 µM. Turning to `CC(C)OC(=O)N[C@H]1CC[C@H](c2ncc(-c3ccc(-n4cccn4)cc3S(=O)(=O)C3CC3)s2)CC1` [Example 87, isopropyl trans-N-[4-[5-(2-cyclopropylsulfonyl-4-pyrazol-1-yl-phenyl)thiazol-2-yl]cyclohexyl]carbamate], the IC50 is 0.29 µM. Still for that read-out and setting: the figure for `CC(C)OC(=O)N[C@H]1CC[C@H](c2ncc(-c3ccc(Nc4ncccn4)cc3S(=O)(=O)C3CC3)s2)CC1` [Example 79, isopropyl trans-(4-(5-(2-(cyclopropylsulfonyl)-4-(pyrimidin-2-ylamino)phenyl)thiazol-2-yl)cyclohexyl)carbamate] is 0.051 µM; for `CC(C)OC(=O)N[C@H]1CC[C@H](c2ncc(-c3ccc(Nc4ccc(C(F)(F)F)cn4)cc3S(=N)(=O)C3CC3)s2)CC1` (stereo partly shown) [Example 82] it is 0.25 µM. On the same count and under the same terms, the figure for `Cc1ccc(Nc2ccc(-c3cnc(C4CCC(NC(=O)OC(C)C)CC4)s3)c(S(=O)(=O)C3CC3)c2)nc1` (stereo not drawn) [Example 77, isopropyl trans-(4-(5-(2-(cyclopropylsulfonyl)-4-((5-methylpyridin-2-ylamino)phenyl)thiazol-2-yl)cyclohexyl)carbamate] is 0.004 µM.

On to `CC(C)OC(=O)Nc1ccc(-c2nnc([C@H]3CC[C@H](NC(=O)OC(C)C)CC3)s2)c(S(=N)(=O)C(C)C)c1` (stereo partly drawn) [Example 41, isopropyl trans-N-[4-[5-[4-(isopropoxycarbonylamino)cyclohexyl]-1,3,4-thiadiazol-2-yl]-3-(isopropylsulfonimidoyl)phenyl]carbamate], for which the IC50 stood at 0.9 µM.

As to `Cc1cc(Nc2ccc(-c3cnc([C@H]4CC[C@H](NC(=O)OC(C)C)CC4)s3)c(S(=N)(=O)C3COC3)c2)n[nH]1` (stereo partly drawn) [Example 105, isopropyl trans-N-[4-[5-[4-[(5-methyl-1H-pyrazol-3-yl)amino]-2-(oxetan-3-ylsulfonimidoyl)phenyl]thiazol-2-yl]cyclohexyl]carbamate], the IC50 was determined as 0.026 µM. The same measure, in the same setting: the figure for `CC(C)OC(=O)Nc1ccc(-c2cnc([C@H]3CC[C@H](NC(=O)OC(C)C)CC3)s2)c(S(=O)(=O)CC(C)(C)C)c1` [Example 24, isopropyl trans-N-[3-(2,2-dimethylpropylsulfonyl)-4-[2-[4-(isopropoxycarbonylamino)cyclohexyl]thiazol-5-yl]phenyl]carbamate] is 2.27 µM; for `COc1ccc(Nc2ccc(-c3cnc([C@H]4CC[C@H](NC(=O)OC(C)C)CC4)s3)c(S(=O)(=O)C3CC3)c2)cn1` [Example 93, isopropyl trans-(4-(5-(2-(cyclopropylsulfonyl)-4-((6-methoxypyridin-3-yl)amino)phenyl)thiazol-2-yl)cyclohexyl)carbamate] it is 0.01 µM. Same read-out and setting: as for `Cc1cc(Nc2ccc(-c3nc4c(s3)CC(NC(=O)OC(C)C)CC4)c(S(=O)(=O)C3CC3)c2)n[nH]1` (stereo not shown) [Example 107, isopropyl (2-(2-(cyclopropylsulfonyl)-4-((5-methyl-1H-pyrazol-3-yl)amino)phenyl)-4,5,6,7-tetrahydrobenzo[d]thiazol-6-yl)carbamate], the figure is 0.275 µM; as for `COc1ccc(Nc2ccc(-c3cnc([C@H]4CC[C@H](NC(=O)OC(C)C)CC4)s3)c(S(=O)(=O)C3CC3)c2)nc1` [Example 78, isopropyl trans-(4-(5-(2-(cyclopropylsulfonyl)-4-((5-methoxypyridin-2-yl)amino)phenyl)thiazol-2-yl)cyclohexyl)carbamate], 0.004 µM.

On to `CC(C)OC(=O)N[C@H]1CC[C@H](c2ncc(-c3ccc(Nc4cccnc4)cc3S(=O)(=O)C3CC3)s2)CC1` [Example 76, isopropyl trans-N-[4-[5-[2-cyclopropylsulfonyl-4-(3-pyridylamino)phenyl]thiazol-2-yl]cyclohexyl]carbamate], for which the IC50 turned out to be 0.009 µM. On the same count and under the same terms, the figure for `COc1ccc(Nc2ccc(-c3cnc([C@H]4CC[C@H](NC(=O)OC(C)C)CC4)s3)c(S(=O)(=O)C3COC3)c2)cn1` [Example 113, isopropyl trans-N-[4-[5-[4-[(6-methoxy-3-pyridyl)amino]-2-(oxetan-3-ylsulfonyl)phenyl]thiazol-2-yl]cyclohexyl]carbamate] is 0.016 µM.

For the molecule `Cc1cc(Nc2ccc(-c3ncc([C@H]4CC[C@H](NC(=O)OC(C)C)CC4)s3)c(S(=O)(=O)C3CC3)c2)n[nH]1` [Example 91, isopropyl trans-(4-(2-(2-(cyclopropylsulfonyl)-4-((5-methyl-1H-pyrazol-3-yl)amino)phenyl)thiazol-5-yl)cyclohexyl)carbamate], the IC50 was found to be 1.5 µM. Same read-out and setting: as for `CC(C)OC(=O)N[C@H]1CC[C@H](c2ncc(-c3ccc(Nc4cn[nH]c4)cc3S(=O)(=O)C3CC3)s2)CC1` [Example 71], the figure is 0.016 µM.

`CC(C)OC(=O)N[C@H]1CC[C@H](c2ncc(-c3ccc(Nc4ccon4)cc3S(=O)(=O)NC(C)(C)C)s2)CC1` [Example 30, isopropyl trans-(4-(5-(2-(N-(tert-butyl)sulfamoyl)-4-(isoxazol-3-ylamino)phenyl)thiazol-2-yl)cyclohexyl)carbamate]: the half-inhibitory concentration (IC50) came out at 2.65 µM.

With `CC(=O)Nc1ccc(-c2cnc([C@H]3CC[C@H](NC(=O)OC(C)C)CC3)s2)c(S(=N)(=O)C2CC2)c1` (stereo partly drawn) [Example 67, isopropyl trans-(4-(5-(4-acetylamino-2-(cyclopropanesulfonimidoyl)phenyl]thiazol-2-yl)cyclohexyl)carbamate], the IC50 came out at 2.6 µM. `Cc1cc(Nc2ccc(-c3cnc(C4CCC(NC(=O)OC(C)C)CC4)s3)c([S+]([O-])C3CC3)c2)n[nH]1` (stereo not drawn) [Example 52, isopropyl trans-N-[4-[5-[2-cyclopropylsulfinyl]-4-[(5-methyl-1H-pyrazol-3-yl)amino]phenyl]thiazol-2-yl]cyclohexyl]carbamate]: the IC50 turned out to be 0.08 µM. Consider `CC(C)OC(=O)N[C@H]1CC[C@H](c2ncc(-c3ccc(Nc4ccccn4)cc3S(=O)(=O)C3CC3)s2)CC1` [Example 66, isopropyl trans-N-[4-[5-[2-cyclopropylsulfonyl-4-(2-pyridylamino)phenyl]thiazol-2-yl]cyclohexyl]carbamate], for which the IC50 amounted to 0.018 µM.

For the molecule `Cc1cc(Nc2ccc(-c3nc4c(s3)CCN(C(=O)OC(C)C)CC4)c(S(=O)(=O)C3CC3)c2)n[nH]1` [Example 108, isopropyl 2-(2-(cyclopropylsulfonyl)-4-((5-methyl-1H-pyrazol-3-yl)amino)phenyl)-7,8-dihydro-4H-thiazolo[4,5-d]aza-6(5H)-carboxylate], the IC50 worked out at 0.468 µM. The same measure, in the same setting: as for `CCNC(=O)c1ccc(-c2cnc([C@H]3CC[C@H](NC(=O)OC(C)C)CC3)s2)c(S(=O)(=O)C2CC2)c1` [Example 111, isopropyl trans-(4-(5-(2-(cyclopropylsulfonyl)-4-(ethylcarbamoyl)phenyl)thiazol-2-yl)cyclohexyl)carbamate], the figure is 0.7 µM. Consider `CC(C)OC(=O)Nc1ccc(-c2cnc(N3CCCC(NC(=O)OC(C)C)CC3)s2)c(S(=O)(=O)NC(C)(C)C)c1` (stereo not shown) [Example 11, isopropyl N-[3-(tert-butylsulfamoyl)-4-[2-[4-(isopropoxycarbonylamino)azepan-1-yl]thiazol-5-yl]phenyl]carbamate], for which the IC50 was 2.54 µM.

The record behind these values is patent US20230142274A1 (SIMCERE PHARMACEUTICAL CO., LTD., priority 2020, published 2023).
